{"source": "paper PMC12462173", "about": "“Evaluation of in vitro drug-drug interactions of ivermectin and antimalarial compounds” (Malaria Journal, 2025)", "key": {"[1]": {"settings": "reported peak concentration in a patient population associated with standard dosing; cited from earlier work"}, "[2]": {"tested_on": "pooled human liver microsomes", "assay": "In vitro metabolism of ivermectin in pooled human liver microsomes, alone and co-incubated with an antimalarial (CYP-mediated DDI)", "protocol": "Pooled human liver microsomes (containing 20 mg/mL protein) were thawed on ice, and the reactions were conducted in a 96-well plate (1 mL, Agilent Technologies, Santa Clara, CA, USA). The assay buffer consisted of 0.1 M potassium phosphate buffer (pH 7.4). The premix solutions for each condition were prepared with specific volumes of each component, as outlined in Table S1. The premix solution was prepared by combining ivermectin, antimalarial drug, microsomes, and buffer. Three replicates of each premix solution were prepared, and 475 µL of each premix was transferred into separate wells of the 96-well plate. The plate was incubated at 37 °C for 5 min with gentle shaking (300 rpm). Following incubation, 25 µL of 20 mM NADPH was added to each well, and the solution was mixed thoroughly. The final incubation mixture (500 µL) contained a total microsome concentration of 0.53 mg/mL. To monitor the metabolism of ivermectin, 50 µL from each well was collected at 0, 15, 30, 45, 60, 90, 120, and 150 min and transferred to a new plate containing 200 µL of cold acetonitrile and 100 ng/mL of ivermectin-D2 (internal standard). The collection plate was kept on ice during sampling. After sample collection, the plate was sealed and centrifuged at 1,100 × g for 15 min at 4 °C. A 100 µL aliquot of the clear supernatant was transferred to a new plate for immediate LC–MS analysis.\nThe LC system consisted of an Agilent 1260 quaternary pump, an Agilent 1260 autosampler (set at 6 °C), and an Agilent 1290 column compartment (set at 40 °C). Five µL of sample was analysed on an Acquity UPLC HSS T3 reversed-phase column (2.1 × 100 mm, 1.8 μm) with a precolumn (2.1 × 5 mm, 1.8 μm) under a linear gradient. The mobile phase consisted of water with 10 mM ammonium acetate and 0.1% formic acid (A) and acetonitrile:water (95:5, v/v) with 10 mM ammonium acetate and 0.1% formic acid (B), at a flow rate of 0.3 mL/min. The gradient started at 75% B, ramped to 90% B over 2 min, held at 90% B for 4 min, and returned to 75% B in 0.1 min, with a 3.9-min re-equilibration. A Sciex TripleTOF 5600 + Q-TOF MS with DuoSpray ESI was used for LC–MS analysis in the positive mode, with source conditions set at 40 psi for ion source gas 1 (GS1) and gas 2 (GS2), 30 psi for curtain gas (CUR), 4,500 V for ion spray voltage floating (ISVF), 350 °C source temperature (TEM), and 120 V declustering potential (DP). Data were acquired from m/z 100–1,000 in TOF–MS scan mode using Analyst TF Software 1.8, and ivermectin quantification (ivermectin peak area/internal standard peak area) was performed with MultiQuant Software (Sciex, Framingham, MA, USA) with a high resolution TOF–MS scan mode.\nThe metabolism rate of ivermectin was evaluated based on the normalized peak area (%) of ivermectin over a total of 150 min of incubation. […] This normalized value was further adjusted relative to the pre-incubation ivermectin peak area (zero-minute sample) within a sample collection series, resulting in final ivermectin concentrations expressed as relative peak areas. All individual ivermectin concentrations (relative peak area) from triplicate incubations were fitted to an ordinary linear regression, separately conducted for ivermectin alone and ivermectin co-incubated with an antimalarial. The estimated (±95% CI) slope and intercept of the regression analysis was derived using GraphPad Prism v.10.4.2. Additionally, the slopes of the regression analyses were compared statistically between ivermectin alone and when co-incubation with an antimalarial, as an automated output from the regression analysis. Furthermore, the relative difference (%) in in vitro metabolism rate (i.e. difference between regression slopes) for ivermectin alone and when co-incubated with an antimalarial was calculated as shown in Eq. 1."}, "[3]": {"settings": "Rhesus macaques; cited from earlier work"}, "[4]": {"settings": "enzymes that metabolize the drug; cited from earlier work"}}, "note": "Where “and” joins values, the source holds several entries; their conditions need not be identical. Equal entries are not always repeated. Entries after “also recorded” stand apart in the source; their conditions may differ."}
{"compound": "CCN(CC)CCCC(C)Nc1ccnc2cc(Cl)ccc12", "note": "(centres unmarked) [Chloroquine]", "values": [{"measurement": "Reported Cmax (ng/ml)", "setting": "[1]", "result": "1430 [11] ng/ml"}, {"measurement": "DDI effect on the in vitro metabolism rate of ivermectin (class in words)", "setting": "[2]", "result": "substantial"}, {"measurement": "Exposure to ivermectin on co-administration", "setting": "[3]", "result": "increased exposure to ivermectin"}]}
{"compound": "CCN(CC)Cc1cc(Nc2ccnc3cc(Cl)ccc23)ccc1O", "note": "[Amodiaquine]", "values": [{"measurement": "Metabolism pathway", "setting": "[4]", "result": "Major CYP2C8; Minor CYP1A1, CYP1B1 [23, 28]"}]}
{"compound": "COc1ncnc(NS(=O)(=O)c2ccc(N)cc2)c1OC", "note": "[Sulfadoxine]", "values": [{"measurement": "Reported Cmax (ng/ml)", "setting": "[1]", "result": "130,000 [11] ng/ml"}, {"measurement": "Metabolism pathway", "setting": "[4]", "result": "Acetylation by N-Acetyltransferase 2 [25]"}]}
{"compound": "COc1ccc2nc3cc(Cl)ccc3c(Nc3cc(CN4CCCC4)c(O)c(CN4CCCC4)c3)c2n1", "note": "[Pyronaridine]", "values": [{"measurement": "Reported Cmax (ng/ml)", "setting": "[1]", "result": "571 [12] ng/ml"}, {"measurement": "Metabolism pathway", "setting": "[4]", "result": "CYP1A2, CYP2D6, CYP3A4 [24]"}]}
{"compound": "O=C1C(O)=C([C@H]2CC[C@H](c3ccc(Cl)cc3)CC2)C(=O)c2ccccc21", "note": "[Atovaquone]", "values": [{"measurement": "Reported Cmax (ng/ml)", "setting": "[1]", "result": "13,300 [11] ng/ml"}, {"measurement": "Metabolism pathway", "setting": "[4]", "result": "Major CYP3A4; Minor CYP2C9 [21, 22]"}]}
{"compound": "Clc1ccc2c(N3CCN(CCCN4CCN(c5ccnc6cc(Cl)ccc56)CC4)CC3)ccnc2c1", "note": "[Piperaquine]", "values": [{"measurement": "Reported Cmax (ng/ml)", "setting": "[1]", "result": "568 [11] ng/ml"}, {"measurement": "Metabolism pathway", "setting": "[4]", "result": "Major CYP3A4; Minor CYP2C8 [14]"}]}
{"compound": "C[C@H]1[C@@H](O)O[C@@H]2O[C@@]3(C)CC[C@H]4[C@H](C)CC[C@@H]1[C@@]24OO3", "note": "[Dihydroartemisinin]", "values": [{"measurement": "Reported Cmax (ng/ml)", "setting": "[1]", "result": "421 [3] ng/ml"}, {"measurement": "Metabolism pathway", "setting": "[4]", "result": "Glucuronidation by UGT1A9 and UGT2B7 [29]"}]}
{"compound": "COc1cc(NC(C)CCCN)c2ncccc2c1", "note": "(centres unmarked) [Primaquine]", "values": [{"measurement": "Reported Cmax (ng/ml)", "setting": "[1]", "result": "167 [11] ng/ml"}, {"measurement": "Metabolism pathway", "setting": "[4]", "result": "Major CYP2D6; Minor CYP1A2 [23, 30]"}]}
{"compound": "OC(c1cc(C(F)(F)F)nc2c(C(F)(F)F)cccc12)C1CCCCN1", "note": "(centres unmarked) [Mefloquine]", "values": [{"measurement": "Reported Cmax (ng/ml)", "setting": "[1]", "result": "2700 [11] ng/ml"}, {"measurement": "DDI effect on the in vitro metabolism rate of ivermectin (class in words)", "setting": "[2]", "result": "substantial"}]}
{"compound": "C[C@H]1[C@H](OC(=O)CCC(=O)O)O[C@@H]2O[C@@]3(C)CC[C@H]4[C@H](C)CC[C@@H]1[C@@]24OO3", "note": "[Artesunate]", "values": [{"measurement": "Reported Cmax (ng/ml)", "setting": "[1]", "result": "244 [11] ng/ml"}]}
{"compound": "[H]/N=C(\\N/C(=N/[H])Nc1ccc(Cl)cc1)NC(C)C", "note": "[Proguanil]", "values": [{"measurement": "Reported Cmax (ng/ml)", "setting": "[1]", "result": "750 [11] ng/ml"}, {"measurement": "Metabolism pathway", "setting": "[4]", "result": "CYP2C19 [18]"}]}
{"compound": "CC[C@H](C)[C@H]1O[C@]2(CC[C@@H]1C)C[C@@H]1C[C@@H](C/C=C(\\C)[C@@H](O[C@H]3C[C@H](OC)[C@@H](O[C@H]4C[C@H](OC)[C@@H](O)[C@H](C)O4)[C@H](C)O3)[C@@H](C)/C=C/C=C3\\CO[C@@H]4[C@H](O)C(C)=C[C@@H](C(=O)O1)[C@]34O)O2", "note": "[Ivermectin]", "values": [{"measurement": "Reported Cmax (ng/ml)", "setting": "[1]", "result": "119 [3] ng/ml"}, {"measurement": "Intercept (95%CI) of linear regression of ivermectin relative peak area (%), ivermectin alone", "setting": "[2]; ivermectin 1 µM alone, control run paired with the antimalarial of the same table line", "result": "97.6 (95.4-99.9) and 96.1 (94.1-98.1) and 98.0 (96.7-99.2) and 97.7 (96.2-99.2) and 98.0 (96.6-99.4) and 100.1 (98.5-101.7) and 97.8 (95.9-99.8)"}, {"measurement": "Metabolism pathway", "setting": "[4]", "result": "primarily metabolized by CYP3A4 and to a lesser extent CYP3A5 and CYP2C8; also recorded: Major CYP3A4; Minor CYP3A5, CYP2C8 [31, 32]"}]}
{"compound": "CO[C@H]1O[C@@H]2O[C@@]3(C)CC[C@H]4[C@H](C)CC[C@@H]([C@H]1C)[C@@]24OO3", "note": "[Artemether]", "values": [{"measurement": "Reported Cmax (ng/ml)", "setting": "[1]", "result": "186 [11] ng/ml"}, {"measurement": "Metabolism pathway", "setting": "[4]", "result": "Major CYP2B6; Minor CYP3A4 [19, 20, 26]"}]}
{"compound": "CCCCN(CCCC)CC(O)c1cc(Cl)cc2c1-c1ccc(Cl)cc1/C2=C/c1ccc(Cl)cc1", "note": "(centres unmarked) [Lumefantrine]", "values": [{"measurement": "Reported Cmax (ng/ml)", "setting": "[1]", "result": "25,700 [11] ng/ml"}, {"measurement": "Metabolism pathway", "setting": "[4]", "result": "CYP3A4 [19, 20]"}]}
{"compound": "CCc1nc(N)nc(N)c1-c1ccc(Cl)cc1", "note": "[Pyrimethamine]", "values": [{"measurement": "Reported Cmax (ng/ml)", "setting": "[1]", "result": "280 [11] ng/ml"}, {"measurement": "DDI effect on the in vitro metabolism rate of ivermectin (class in words)", "setting": "[2]", "result": "little impact"}, {"measurement": "Intercept (95%CI) of linear regression of ivermectin relative peak area (%), combination", "setting": "[2]; human, pH 7.4", "result": "96.7 (95.0-98.3)"}, {"measurement": "Slope (95%CI) of linear regression of ivermectin relative peak area (%) over time, combination", "setting": "[2]; human, pH 7.4", "result": "-0.21 (-0.24 to -0.19)"}, {"measurement": "Metabolism pathway", "setting": "[4]", "result": "CYP1B1, CYP2C9 [23]"}]}
{"compound": "COc1cc(C)c2c(Oc3cccc(C(F)(F)F)c3)c(OC)cc(NC(C)CCCN)c2n1", "note": "(centres unmarked) [Tafenoquine]", "values": [{"measurement": "Reported Cmax (ng/ml)", "setting": "[1]", "result": "300 [13] ng/ml"}, {"measurement": "Metabolism pathway", "setting": "[4]", "result": "CYP2D6 [27]"}]}
